# Laboratory results reported in patent US11590116B2 (THERAVANCE BIOPHARMA R&D IP, LLC, priority 2019, dated 2023).
# Tests used:
# [1] = test system: TGF-β-stimulated SMAD3 phosphorylation in BEAS-2B cells; assay: Cellular ALK5 potency assay, inhibition of TGF-β stimulated pSMAD3 formation in BEAS-2B cells; format: cell-based; conditions: Homo sapiens; inhibition of TGF-β stimulated pSMAD3 formation, BEAS-2B cells; read-out: BEAS2B pIC50 (converted)
# Procedure, shortened: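 AlphaLISA pSMAD3 read-out, beads incubated overnight. Human BEAS-2B cells: 1 h compound preincubation (37 °C, 5% CO2), then 30 min TGF-β at 10 ng/mL final, immediate lysis. Values are pIC50 relative to stimulated, compound-free baseline.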
# [2] = target: T1, recombinant human ALK5 (TGF-βR1) protein (Homo sapiens, UniProt P36897); assay: Biochemical ALK5 (TGF-βR1) assay to measure pKi (LANCE Ultra ULight kinase assay); conditions: apparent pKi from pIC50 by Cheng-Prusoff, read-out: ALK5 pKi (converted)
# T1 construct: purchased Life Technologies PR9075A
# T1 sequence (P36897 34-503): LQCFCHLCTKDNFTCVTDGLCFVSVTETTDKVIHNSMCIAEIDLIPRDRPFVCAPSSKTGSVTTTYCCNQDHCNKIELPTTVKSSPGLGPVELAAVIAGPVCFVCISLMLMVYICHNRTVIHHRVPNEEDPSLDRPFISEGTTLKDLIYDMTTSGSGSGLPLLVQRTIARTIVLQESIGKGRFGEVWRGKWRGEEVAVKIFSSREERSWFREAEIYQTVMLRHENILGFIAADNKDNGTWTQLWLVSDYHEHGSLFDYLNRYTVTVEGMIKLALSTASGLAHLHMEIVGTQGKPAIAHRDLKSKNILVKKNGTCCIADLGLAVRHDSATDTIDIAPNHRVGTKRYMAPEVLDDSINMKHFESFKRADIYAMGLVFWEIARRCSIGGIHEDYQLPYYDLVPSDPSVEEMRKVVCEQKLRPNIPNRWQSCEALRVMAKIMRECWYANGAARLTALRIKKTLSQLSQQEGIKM
# Procedure, shortened: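 Compounds (10 μM to 25 pM) preincubated 60 minutes at room temperature with enzyme, then reaction run 60 minutes at 37° C with ATP added as 125 μM (5× final). Stopped with EDTA plus Eu-anti-phospho-Topoisomerase 2-alpha (Thr1342) antibody, TR-FRET read at 665 nm; pIC50 converted to pKi via Cheng-Prusoff.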
SMILES,Ki [2] [nM],IC50 [1] [nM]
"Cc1cccc(-c2n[nH]cc2-c2ccc3ncc(OCCN4CCN(C(C)C)CC4)cc3n2)n1 [Compound 241, 7-[2-(4-isopropylpiperazin-1-yl)ethoxy]-2-[3-(6-methyl-2-pyridyl)-1H-pyrazol-4-yl]-1,5-naphthyridine]",0.0398 to 0.316,200 to 1260
"CNCCN(C)C1CCN(c2cnc3ccc(-c4c[nH]nc4-c4cccc(C)n4)nc3c2)CC1 [Compound 18, N,N′-dimethyl-N′-[1-[6-[3-(6-methyl-2-pyridyl)-1H-pyrazol-4-yl]-1,5-naphthyridin-3-yl]-4-piperidyl]ethane-1,2-diamine]",0.0398 to 0.316,200 to 1260
"Cc1cccc(-c2n[nH]cc2-c2ccc3ncc(N(C)CCN4CCOCC4)cc3n2)n1 [Compound 103, N-methyl-6-[3-(6-methyl-2-pyridyl)-1H-pyrazol-4-yl]-N-(2-morpholinoethyl)-1,5-naphthyridin-3-amine]",0.0398 to 0.316,25.1 to 158
"Cc1cccc(-c2n[nH]cc2-c2ccc3ncc(CCC(=O)O)cc3n2)n1 [Compound 63, 3-[6-[3-(6-methyl-2-pyridyl)-1H-pyrazol-4-yl]-1,5-naphthyridin-3-yl]propanoic acid]",3.98 to 31.6,1580 to 10000
"CNCCN1CCCN(c2cnc3ccc(-c4c[nH]nc4-c4cccc(C)n4)nc3c2)CC1 [Compound 311, N-methyl-2-[4-[6-[3-(6-methyl-2-pyridyl)-1H-pyrazol-4-yl]-1,5-naphthyridin-3-yl]-1,4-diazepan-1-yl]ethanamine]",0.0398 to 0.316,200 to 1260
"Cc1cccc(-c2n[nH]cc2-c2ccc3ncc(N4CCCN(C5CCCC5)CC4)cc3n2)n1 [Compound 400, 7-(4-cyclopentyl-1,4-diazepan-1-yl)-2-[3-(6-methyl-2-pyridyl)-1H-pyrazol-4-yl]-1,5-naphthyridine]",0.0398 to 0.316,200 to 1260
"CNC(=O)c1ccnc2ccc(-c3c[nH]nc3-c3cccc(C)n3)nc12 [Compound 818, N-methyl-6-[5-(6-methyl-2-pyridyl)-1H-pyrazol-4-yl]-1,5-naphthyridine-4-carboxamide]",0.0398 to 0.316,25.1 to 158
"Cc1cccc(-c2n[nH]cc2-c2ccc3ncc(N4CCC(C)(O)CC4)cc3n2)n1 [Compound 617, 4-methyl-1-[6-[3-(6-methyl-2-pyridyl)-1H-pyrazol-4-yl]-1,5-naphthyridin-3-yl]piperidin-4-ol]",< 0.0316,< 20
"Cc1cccc(-c2n[nH]cc2-c2ccc3ncc(C(=O)NCCN4CCOCC4)cc3n2)n1 [Compound 44, 6-[3-(6-methyl-2-pyridyl)-1H-pyrazol-4-yl]-N-(2-morpholinoethyl)-1,5-naphthyridine-3-carboxamide]",< 0.0316,25.1 to 158
"Cc1cccc(-c2n[nH]cc2-c2ccc3ncc(-c4cn5c(n4)CN(C4CCNC4)CC5)cc3n2)n1 (stereo not drawn) [Compound 440, 2-[3-(6-methyl-2-pyridyl)-1H-pyrazol-4-yl]-7-(7-pyrrolidin-3-yl-6,8-dihydro-5H-imidazo[1,2-a]pyrazin-2-yl)-1,5-naphthyridine]",0.0398 to 0.316,200 to 1260

# Now from value to compound, other results behind:
Ki [2] [nM],SMILES,IC50 [1] [nM]
3.98 to 31.6,"Cc1cccc(-c2n[nH]cc2-c2ccc3ncc(N4CCN(C(C)C)C(C)(C)C4)cc3n2)n1 [Compound 20, 7-(4-isopropyl-3,3-dimethyl-piperazin-1-yl)-2-[3-(6-methyl-2-pyridyl)-1H-pyrazol-4-yl]-1,5-naphthyridine]",200 to 1260
0.398 to 3.16,"Cc1cccc(-c2n[nH]cc2-c2ccc3ncc(CNCCN4CCN(C(C)C)CC4)cc3n2)n1 [Compound 324, 2-(4-isopropylpiperazin-1-yl)-N-[[6-[3-(6-methyl-2-pyridyl)-1H-pyrazol-4-yl]-1,5-naphthyridin-3-yl]methyl]ethanamine]",25.1 to 158
0.0398 to 0.316,"Cc1cccc(-c2[nH]cnc2-c2ccc3ncc(N4CCC(C(=O)OC5CCNCC5)CC4)cc3c2)n1 [Compound 701, piperidin-4-yl 1-(6-(5-(6-methylpyridin-2-yl)-1H-imidazol-4-yl)quinolin-3-yl)piperidine-4-carboxylate]",200 to 1260
0.0398 to 0.316,"Cc1cccc(-c2[nH]c(O)nc2-c2ccc3ncc(C4=CCC5(CCNCC5)CC4)cc3c2)n1 [Compound 1198, 4-[3-(3-azaspiro[5.5]undec-9-en-9-yl)-6-quinolyl]-5-(6-methyl-2-pyridyl)-1H-imidazol-2-ol]",200 to 1260
< 0.0316,"Cc1cccc(-c2[nH]cnc2-c2ccc3ncc(C4=CCN(C)C4)cc3c2)n1 [Compound 16, 3-(1-methyl-2,5-dihydropyrrol-3-yl)-6-[5-(6-methyl-2-pyridyl)-1H-imidazol-4-yl]quinoline]",< 20
< 0.0316,"Cc1cccc(-c2[nH]cnc2-c2ccc3ncc(C4=CCC(NC(C)C)CC4)cc3c2)n1 (stereo not drawn) [Compound 540, N-isopropyl-4-[6-[5-(6-methyl-2-pyridyl)-1H-imidazol-4-yl]-3-quinolyl]cyclohex-3-en-1-amine]",25.1 to 158
0.0398 to 0.316,"Cc1cccc(-c2[nH]cnc2-c2ccc3ncc(NCCN4C[C@@H](C)N[C@@H](C)C4)cc3c2)n1 [Compound 313, N-(2-((3R,5S)-3,5-dimethylpiperazin-1-yl)ethyl)-6-(5-(6-methylpyridin-2-yl)-1H-imidazol-4-yl)quinolin-3-amine]",25.1 to 158
0.0398 to 0.316,"CNC1CCCN(c2cnc3ccc(-c4c[nH]nc4-c4cccc(C)n4)nc3c2)C1 (stereo not drawn) [Compound 606, N-methyl-1-[6-[3-(6-methyl-2-pyridyl)-1H-pyrazol-4-yl]-1,5-naphthyridin-3-yl]piperidin-3-amine]",25.1 to 158
0.0398 to 0.316,"Cc1cccc(-c2[nH]ncc2-c2ccc3ncc(-c4nnco4)cc3n2)n1 [Compound 677, 2-[6-[5-(6-methyl-2-pyridyl)-1H-pyrazol-4-yl]-1,5-naphthyridin-3-yl]-1,3,4-oxadiazole]",25.1 to 158
0.0398 to 0.316,"Cc1cccc(-c2[nH]cnc2-c2ccc3ncc(-c4cncc(C(=O)O[C@@H]5CCN(C)C5)c4)cc3c2)n1 [Compound 396, [(3R)-1-methylpyrrolidin-3-yl] 5-[6-[5-(6-methyl-2-pyridyl)-1H-imidazol-4-yl]-3-quinolyl]pyridine-3-carboxylate]",25.1 to 158
< 0.0316,"CNCCn1cc(-c2cnc3ccc(-c4nc[nH]c4-c4cccc(C)n4)cc3c2)cn1 [Compound 17, N-methyl-2-(4-(6-(5-(6-methylpyridin-2-yl)-1H-imidazol-4-yl)quinolin-3-yl)-1H-pyrazol-1-yl)ethan-1-amine]",25.1 to 158
0.0398 to 0.316,"Cc1cccc(-c2[nH]cnc2-c2ccc3ncc(C4=CCNC4)cc3c2)n1 [Compound 429, 3-(2,5-dihydro-1H-pyrrol-3-yl)-6-[5-(6-methyl-2-pyridyl)-1H-imidazol-4-yl]quinoline]",< 20
0.0398 to 0.316,"Cc1cccc(-c2[nH]cnc2-c2ccc3ncc(NC(=O)C4CNC4)cc3c2)n1 [Compound 579, N-[6-[5-(6-methyl-2-pyridyl)-1H-imidazol-4-yl]-3-quinolyl]azetidine-3-carboxamide]",1580 to 10000
0.0398 to 0.316,"Cc1cccc(-c2[nH]ncc2-c2ccc3ncc(C(=O)OC[C@H]4CCCCN4)cc3c2)n1 (racemic) [Compound 1194, [rac-(2R)-2-piperidyl]methyl 6-[5-(6-methyl-2-pyridyl)-1H-pyrazol-4-yl]quinoline-3-carboxylate]",< 20
